Experimental findings from patent US20220226382A1, “Nutritional Composition” (MORINAGA MILK INDUSTRY CO., LTD., priority 2019, published 2022) are described below.

The assay concerns simian rotavirus SA11 strain. Put plainly: Plaque assay: antiviral action against simian rotavirus in MA104 cells (infection-suppressing ratio). Type of assay: cell-based. Conditions: human milk oligosaccharide alone, n=3. How it is done:
The simian rotavirus SA11 strain (Nihon Bioresearch Inc.) was inoculated to the MA104 cells (Sigma-Aldrich) of African green monkey kidney maintained in a minimum essential medium (Sigma-Aldrich, henceforth referred to simply as “medium”). The simian rotavirus SA11 strain, for example, can be obtained from American Type Culture Collection (ATCC) as ATCC VR-1565. To the medium, lactoferrin (LF) and/or the human milk oligosaccharide(s) shown below were added beforehand alone or in combination at the following concentrations, respectively (n=3).
LF (produced by Morinaga Milk Industry Co., Ltd.): 0, 0.1 or 1.0 mg/mL
2′-Fucosyllactose (2′-FL, Funakoshi Co., Ltd.): 0, 0.1, 0.5, or 2.5 mg/mL
3-Fucosyllactose (3-FL, Funakoshi Co., Ltd.): 0, 0.1, or 0.5 mg/mL
3′-Sialyllactose (3′-SL, Funakoshi Co., Ltd.): 0, 0.1, or 0.5 mg/mL
6′-Sialyllactose (6′-SL, Funakoshi Co., Ltd.): 0, 0.1, or 0.5 mg/mL
Human milk oligosaccharides (mixture) (HMO mix, mixture of 2′-FL (2.5 mg/mL), 3-FL (0.5 mg/mL), 3′-SL (0.25 mg/mL) and 6′-SL (0.5 mg/mL))
The amount of 1.0 mg/mL corresponds to 0.1 mass % in mass percentage.
Degree of infection was evaluated based on the number of “plaques” formed when the cells were infected with the virus. Specifically, the antiviral effects of lactoferrin and human milk oligosaccharides were evaluated based on “plaque-suppressing ratio (%)”, i.e., the ratio of “plaque counts observed with lactoferrin and/or human milk oligosaccharide(s) supplementation” to “plaque counts observed without these supplementation”. Plaque-suppressing ratio was then regarded as “infection-suppressing ratio (%)”.

As to 2′-Fucosyllactose [2′-FL], the infection-suppressing ratio (0.1 mg/mL) worked out at 1.2%.
Regarding 3-Fucosyllactose [3-FL], the infection-suppressing ratio turned out to be 6.6% (0.1 mg/mL) and 21% (0.5 mg/mL).
With `CC(=O)N[C@H]1[C@H]([C@H](O)[C@H](O)CO)O[C@@](OC[C@H]2O[C@@H](O[C@H]3[C@H](O)[C@@H](O)[C@H](O)O[C@@H]3CO)[C@H](O)[C@@H](O)[C@H]2O)(C(=O)O)C[C@@H]1O` [6′-SL, 6′-Sialyllactose], the infection-suppressing ratio (0.1 mg/mL) turned out to be 4.5% and the infection-suppressing ratio (0.5 mg/mL) is reported as 23%.
For the compound `CC(=O)N[C@H]1[C@H]([C@H](O)[C@H](O)CO)O[C@@](O[C@H]2[C@@H](O)[C@@H](CO)O[C@@H](O[C@H]3[C@H](O)[C@@H](O)C(O)O[C@@H]3CO)[C@@H]2O)(C(=O)O)C[C@@H]1O` (stereo partly drawn) [3′-SL, 3′-Sialyllactose], for the setting “0.5 mg/mL”, the infection-suppressing ratio amounted to 33%.
